Each structure is given as a SMILES string.

The test system of assay [1] is rabbit corneal endothelial cells. Description: Culture of rabbit corneal endothelial cells with Y-27632, cells counted by MTS assay. The format is cell-based. Particulars: primary culture, Y-27632 10 μM. The procedure:
From a rabbit corneal tissue isolated immediately after euthanasia, Descemet's membrane with corneal endothelial cells attached thereto was separated. The Descemet's membrane was incubated together with Dispase II (1.2 U/ml, Roche Applied Science) under the conditions of 37° C., 5% CO2 for 45 min, and the corneal endothelial cells were mechanically separated by a pipetting operation. The separated corneal endothelial cells were centrifuged, the cells of a ROCK inhibitor(+) group were stirred in a medium for corneal endothelium added with Y-27632 (10 μM) and the cells of a ROCK inhibitor(−) group were stirred in a medium for corneal endothelium without addition of Y-27632, to the same concentration, and the cells were seeded on a 96 well plate at a density of about 2000 cells per well. As a medium for corneal endothelium, a culture medium (DMEM, Gibco Invitrogen) added with 1% fetal bovine serum and […] bFGF (Gibco Invitrogen) was used. The plate was pre-treated with an FNC coating mix (Athena ES) for 10 min. […] From day 1 to day 3 after the start of the culture, the cells were counted every 24 hr by MTS ([3-(4,5-dimethylthiazol-2-yl)-5-(3-carboxymethoxyphenyl)-2-(4-sulfophenyl)-2H-tetrazolium]) assay using CellTiter 96 (registered trade mark) AQueous One Solution Cell Proliferation (Promega) (FIG. 2).

Assay [2] deals with monkey corneal endothelial cells. Description: Primary culture of monkey corneal endothelial cells with Y-27632, phase contrast observation. Format: cell-based, Macaca fascicularis. The conditions noted are these: Y-27632 10 μM. The procedure: From the corneal tissue isolated from Macaca fascicularis euthanized for other purpose, Descemet's membrane with corneal endothelial cells attached thereto was separated. For the ROCK inhibitor(+) group, the Descemet's membrane was placed in a medium for corneal endothelium added with Y-27632 (10 μM) and incubated under the conditions of 37° C., 5% CO2 for 10 min. For the ROCK inhibitor(−) group, the membrane was placed in a medium for corneal endothelium without addition of Y-27632 and incubated for 10 min under the same conditions. As the medium for corneal endothelium, the same cell culture medium as in Example 1 was used. The Descemet's membrane after the incubation was incubated together with Dispase II (1.2 U/ml, Roche Applied Science) under the conditions of 37° C., 5% CO2 for 45 min, and the corneal endothelial cells were mechanically separated by a pipetting operation. The separated corneal endothelial cells were centrifuged and stirred in the media for corneal endothelium with Y-27632(+) and Y-27632(−) to the same concentration, and the cells were seeded on a 12 well plate at a density of about 20000 cells per well. The plate was pre-treated with an FNC coating mix (Athena ES) for 10 min. […]

The test system is the same in assay [3]. Description: Optimal concentration of Y-27632 for monkey corneal endothelial cells, viable cell count by CellTiter-Glo. The format is cell-based, Macaca fascicularis. On the procedure: Monkey corneal endothelial cells (primary culture) collected in the same manner as in Example 2 were placed in media for corneal endothelium each added with Y-27632 at 1, 10, 33 and 100 μM and a medium for corneal endothelium without addition of Y-27632, and stirred to the same concentration, and the cells were seeded on a 96 well plate at a density of about 2000 cells per well. At 24 hr from the start of the culture, viable cells were counted using CellTiter-Glo (registered trade mark, Promega) (FIG. 7).

For assay [4] the test system is unchanged. Put plainly: Cell morphology in passage culture of monkey corneal endothelial cells (phase contrast, phalloidin fluorescence staining). The conditions noted are these: passage culture on slide glass. The format is cell-based, Macaca fascicularis. The procedure:
The Macaca fascicularis corneal endothelial cells passage-cultured in the same manner as in Example 6 were subcultured on a slide glass to a dilution of ¼. […] Furthermore, the corneal endothelial cells on the slide glass were fixed with 4% para-formaldehyde at room temperature for 10 min, and actin fiber was stained by phalloidin fluorescence staining (FIGS. 10A and 10B).

Assay [5] shares this test system. Description: Cell cycle of monkey corneal endothelial cells (anti-Ki67 antibody immunostaining and flow cytometry). Format: cell-based, Macaca fascicularis. Particulars: Y-27632 10 μM. The procedure: The Macaca fascicularis corneal endothelial cells passage-cultured in the same manner as in Example 6 were subcultured on a slide glass to a dilution of ¼. A medium for corneal endothelium added with Y-27632 (10 μM) was used for the ROCK inhibitor(+) group and a medium for corneal endothelium without addition of Y-27632 was used for the ROCK inhibitor(−) group. On days 1, 2 and 14 of the passage culture, the corneal endothelial cells on the slide glass were fixed with 4% para-formaldehyde at room temperature for 10 min, and immunostained with anti-Ki67 antibody (FIG. 11). Similarly, moreover, the Macaca fascicularis corneal endothelial cells were passage-cultured to a dilution of ¼ in each of the ROCK inhibitor(+) group and ROCK inhibitor(−) group. On days 1 and 2 of the passage culture, the cells were collected using 0.05% trypsin and subjected to flow cytometry using anti-Ki67 antibody, and the cell cycle was examined (FIGS. 12 and 13).

For assay [6] the test system is unchanged. Description: Density of cultured monkey corneal endothelial cells over repeated passages. Format: cell-based, Macaca fascicularis. The conditions noted are these: Y-27632 10 μM, passage repeated 7 times. The procedure: From the corneal tissue isolated from Macaca fascicularis euthanized, Descemet's membrane with corneal endothelial cells attached thereto was separated. The Descemet's membrane was incubated together with Dispase II (1.2 U/ml, Roche Applied Science) under the conditions of 37° C., 5% CO2 for 45 min, and the corneal endothelial cells were mechanically separated by a pipetting operation. The separated corneal endothelial cells were centrifuged and seeded on a medium for corneal endothelium. The corneal endothelial cells that reached confluent were incubated with 0.05% trypsin under the conditions of 37° C., 5% CO2 for 10 min, and passage-cultured. A medium for corneal endothelium added with Y-27632 (10 μM) was used for the ROCK inhibitor(+) group and a medium for corneal endothelium without addition of Y-27632 was used for the ROCK inhibitor(−) group. At 72 hr from the start of the culture, the culture medium was exchanged and, after 72 hr, both the ROCK inhibitor(+) group and ROCK inhibitor(−) group were cultured in a normal medium for corneal endothelium free of Y-27632. On every passage, photographs of the cells were taken with a phase contrast microscope, cell density was measured, and the influence of Y-27632 on the density of the cultured monkey corneal endothelial cells was studied.

The mark [7] stands for this setting: days 1 and 2 of the passage culture.

As for `CC(N)[C@H]1CC[C@H](C(=O)Nc2ccncc2)CC1` (single isomer, unassigned; (+)) [Y-27632, (+)-trans-4-(1-aminoethyl)-1-(4-pyridylcarbamoyl)cyclohexane], the “cell adhesion in 24 hr (day 1) after cell seeding as compared to the ROCK inhibitor(−) group” value in assay [1] is reported as “about 2.8 fold”. For the same molecule, in assay [1] (day 3), the “cell growth at day 3 when the cells reached confluent, difference from ROCK inhibitor(−) group” value is “a significant difference was not found”. Besides, the “number of days before reaching confluent” value in assay [2] (7 for ROCK inhibitor(−)) was 3 days. The “cells adhered onto the plate as compared to ROCK inhibitor(−)” value in assay [2] (after 24 hr from the start of the culture) is listed as “apparently more cells were adhered onto the plate”. Also, in assay [3] (of 1, 10, 33 and 100 μM, 24 hr), the “most effective concentration for monkey corneal endothelial cells” value worked out at 10 µM. The “number of cells that adhered onto the plate at 24 hr, compared to medium without Y-27632 and media with other concentrations” value in assay [3] (primary culture, 10 μM Y-27632 (1, 10, 33 and 100 μM tested)) is “significantly high”. For the same molecule, in assay [4] (24 hr), the “actin stress fiber (phalloidin fluorescence staining)” value was “actin stress fiber was clearly observed”. The “cell adhesion and morphology at 24 hr after the passage (phase contrast)” value in assay [4] (dilution ¼) is “adhesion of the cells onto the slide glass increased, flattening to corneal endothelial cell-like cells was promoted, and aggregation of cells also increased”. The “number of Ki67 positive cells by immunostaining, compared to ROCK inhibitor(−) group” value in assay [5] (day 14, almost confluent) is “less than that of the ROCK inhibitor(−) group”. In assay [5] (setting [7]), the “Ki67 positive cells by flow cytometry, compared to ROCK inhibitor(−) group” value is given as “contained many Ki67 positive cells” and the “Ki67 positive cells by immunostaining, compared to ROCK inhibitor(−) group” value is recorded as “contained many Ki67 positive cells”. The “cell density throughout the passage culture, compared to ROCK inhibitor(−) group” value in assay [6] is on record as “higher cell density”.

For the origin of these results see US20230210864A1, “AGENT FOR PROMOTING CORNEAL ENDOTHELIAL CELL ADHESION” (Senju Pharmaceutical Co., Ltd., priority 2007, published 2023).
